Laboratory results from publication PMC9022596, “Convergent Evolution of Antibiotic Tolerance in Patients with Persistent Methicillin-Resistant Staphylococcus aureus Bacteremia” (Infection and Immunity, 2022).
Values joined by “and” are separate entries in the source; they are usually repeats but may differ in a detail not shown here. Identical values can stand only once.

Experiments:
Assay in all cases: microbe, parasite or virus in culture
Parameters in all cases: species or system Staphylococcus aureus clinical blood isolates and ATCC 29213; Broth microdilution MIC in cation-adjusted Mueller-Hinton broth with 50 ug/mL CaCl2, EUCAST reading, 37 C
[1] = tested on: T1, Staphylococcus aureus PB1803; settings: PB1803, 16 h, replicate MIC, MHB + 50 ug/mL CaCl2
T1 construct: PB1803
Protocol: (§1) MICs were measured in cation-adjusted Mueller-Hinton broth (MHB) supplemented with 50 μg/mL CaCl2 (MHB-Ca^2+) via broth microdilution in 96-well plates with an inoculum of ∼5 × 10^5 CFU per mL. Antibiotic test concentrations ranged from 0.0625 μg/mL to 32 μg/mL by 2-fold dilutions. Plates were incubated at 37°C for 16 h without shaking, and results were interpreted in accordance with European Committee on Antimicrobial Susceptibility Testing reading guidelines ([72]). S. aureus ATCC 29213 was used as a quality-control strain.

[2] = tested on: T2, Staphylococcus aureus PB1802; settings: PB1802, 16 h, replicate MIC, MHB + 50 ug/mL CaCl2
T2 construct: PB1802
Protocol: as §1

[3] = tested on: T3, Staphylococcus aureus PB1405; settings: PB1405, 16 h, replicate MIC, MHB + 50 ug/mL CaCl2
T3 construct: PB1405
Protocol: as §1

[4] = tested on: T4, Staphylococcus aureus PB0409; settings: PB0409, 16 h, replicate MIC, MHB + 50 ug/mL CaCl2
T4 construct: PB0409
Protocol: as §1

[5] = tested on: T5, Staphylococcus aureus PB1406; settings: PB1406, 16 h, replicate MIC, MHB + 50 ug/mL CaCl2
T5 construct: PB1406
Protocol: as §1

[6] = tested on: T6, Staphylococcus aureus PB1511; settings: PB1511, 16 h, replicate MIC, MHB + 50 ug/mL CaCl2
T6 construct: PB1511
Protocol: as §1

S. aureus ATCC 29213 = tested on: T7, S. aureus ATCC 29213; settings: Staphylococcus aureus, ATCC29213, 16 h; replicate MIC, MHB + 50 ug/mL CaCl2
T7 construct: ATCC 29213
Protocol: as §1

[7] = tested on: T8, Staphylococcus aureus PB0207; settings: PB0207, 16 h, replicate MIC, MHB + 50 ug/mL CaCl2
T8 construct: PB0207
Protocol: as §1

[8] = tested on: T9, Staphylococcus aureus PB0101; settings: PB0101, 16 h, replicate MIC, MHB + 50 ug/mL CaCl2
T9 construct: PB0101
Protocol: as §1

[9] = tested on: T10, Staphylococcus aureus PB0911; settings: PB0911, 16 h, replicate MIC, MHB + 50 ug/mL CaCl2
T10 construct: PB0911
Protocol: as §1

[10] = tested on: T11, Staphylococcus aureus PB1512; settings: PB1512, 16 h, replicate MIC, MHB + 50 ug/mL CaCl2
T11 construct: PB1512
Protocol: as §1

[11] = tested on: T12, Staphylococcus aureus PB0701; settings: PB0701, 16 h, replicate MIC, MHB + 50 ug/mL CaCl2
T12 construct: PB0701
Protocol: as §1

[12] = tested on: T13, Staphylococcus aureus PB0208; settings: PB0208, 16 h, replicate MIC, MHB + 50 ug/mL CaCl2
T13 construct: PB0208
Protocol: as §1

[13] = tested on: T14, Staphylococcus aureus PB0603; settings: PB0603, 16 h, replicate MIC, MHB + 50 ug/mL CaCl2
T14 construct: PB0603
Protocol: as §1

[14] = tested on: T15, Staphylococcus aureus PB0906; settings: PB0906, 16 h, replicate MIC, MHB + 50 ug/mL CaCl2
T15 construct: PB0906
Protocol: as §1

Row | Compound | MIC [1] [µg/mL] | MIC [2] [µg/mL] | MIC [3] | MIC [4] [µg/mL] | MIC [5] [µg/mL] | MIC [6] [µg/mL] | MIC (S. aureus ATCC 29213) [µg/mL] | MIC [7] | MIC [8] [µg/mL] | MIC [9] | MIC [10] [µg/mL] | MIC [11] | MIC [12] [µg/mL] | MIC [13] | MIC [14] [µg/mL]
1 | CCO/N=C(\C(=O)N[C@@H]1C(=O)N2C(C(=O)[O-])=C(Sc3nc(-c4cc[n+](C)cc4)cs3)CS[C@H]12)c1nsc(N)n1 [Ceftaroline] | 0.5 | 0.5 | 0.25 µg/mL | 0.5 | 0.25 | 0.5 | 0.25 | 0.5 µg/mL | 0.5 | 0.5 µg/mL | 0.5 | 0.25 µg/mL | 0.5 | 0.25 µg/mL | 0.5
2 | CCCCCCCCCC(=O)N[C@@H](Cc1c[nH]c2ccccc12)C(=O)N[C@H](CC(N)=O)C(=O)N[C@@H](CC(=O)O)C(=O)N[C@@H]1C(=O)NCC(=O)N[C@@H](CCCN)C(=O)N[C@@H](CC(=O)O)C(=O)N[C@H](C)C(=O)N[C@@H](CC(=O)O)C(=O)NCC(=O)N[C@H](CO)C(=O)N[C@@H]([C@H](C)CC(=O)O)C(=O)N[C@@H](CC(=O)c2ccccc2N)C(=O)O[C@@H]1C [Daptomycin] | 2 | 2 | 2 µg/mL and 1 µg/mL | 1 | 1 | 2 | 1 | 1 µg/mL | 1 | 2 µg/mL and 1 µg/mL | 1 | 1 µg/mL and 2 µg/mL | 1 | 2 µg/mL | 2
3 | CC(=O)NC[C@H]1CN(c2ccc(N3CCOCC3)c(F)c2)C(=O)O1 [Linezolid] | 4 | 4 | 4 µg/mL | 4 | 4 | 4 | 4 | 4 µg/mL | 4 | 4 µg/mL | 4 | 4 µg/mL | 4 | 4 µg/mL | 4
4 | CN[C@H](CC(C)C)C(=O)N[C@H]1C(=O)N[C@@H](CC(N)=O)C(=O)N[C@H]2C(=O)N[C@H]3C(=O)N[C@H](C(=O)N[C@H](C(=O)O)c4cc(O)cc(O)c4-c4cc3ccc4O)[C@H](O)c3ccc(c(Cl)c3)Oc3cc2cc(c3O[C@@H]2O[C@H](CO)[C@@H](O)[C@H](O)[C@H]2O[C@H]2C[C@](C)(N)[C@H](O)[C@H](C)O2)Oc2ccc(cc2Cl)[C@H]1O [Vancomycin] | 2 | 2 | 2 µg/mL | 2 | 2 | 2 | 2 | 2 µg/mL and 1 µg/mL | 2 | 2 µg/mL | 2 | 2 µg/mL | 4 | 4 µg/mL and 2 µg/mL | 2
